Experimental data reported in patent US4931436A, “Condensed diazepinones, processes for preparing them and pharmaceutical compositions containing these compounds” (Dr. Karl Thomae GmbH, priority 1988, dated 1990).
Where a name gives a salt, the structure may show the parent alone. Read-outs that look alike come from different tables or passages of the source.

Columns and labels:
Solubility in water = type: physicochemical
[1] = molecular target: T1, muscarinic receptors (ileum) (Cavia porcellus, UniProt H0W1Z3); test: Dissociation constants (KB values) on the isolated ileum; conditions: guinea pig, methacholine, 30 minutes contact
T1 construct: from tissue; host or cells: isolated ileum of the guinea pig
Method: (§1) Dissociation constants (KB values) were determined "in vitro" on the ileum and spontaneously beating atrium of the guinea pig. The ileum was taken out and incubated in Krebs-Henseleit solution in an organ bath. Contractions were induced by increasing concentrations of methacholine (M) so that total concentration/activity curves could be recorded. M was then washed out, the test substance was added and kept in contact for 30 minutes and another concentration/activity curve was recorded with M.

[2] = molecular target: muscarinic receptors (submandibular gland) (Rattus norvegicus, UniProt P08483); test: biochemical; type: binding, rat (male Sprague-Dawley); conditions: in vitro, 0.3 nmolar 3H-NMS, 45 min, 30° C., read-out: log IC50, Submandibular gland (converted)
[3] = molecular target: muscarinic receptors (lachrymal glands) (Rattus norvegicus, UniProt P08483); test: in vivo; conditions: for ED50: iv, 0.5 h, read-out: ID50, Lachrymal glands
Method: (§2) For these experiments, female rats with a body weight of about 200 g were used. Before the start of the experiment the animals were anaesthetised with a dose of 1.25 g/kg of urethane. The animals were given the dosage of test substance by i.v. injection. After 15 minutes, 113 ng/kg of ^3 H-N-methylscopolamine (^3 H-NMS) were given by the same route. After another 15 minutes the animals were killed and their heart, bronchi and lachrymal glands were taken out. These organs were dissolved in Soluene R and the radioactivity was measured. These measurements were taken as representing total binding. […] The ID50 values for the individual organs were determined from these experiments. […]

[4] = test system: muscarinic receptors of the atrium; test: Dissociation constants (KB values) on the isolated spontaneously beating right atrium; design: species or system guinea pig; conditions: guinea pig heart and ileum in vitro
Method: as §1
(§3) Dissociation constants for the muscarinic receptors of the atrium were obtained in the manner described above.

[5] = molecular target: T2, muscarinic receptors of the atrium (Cavia porcellus, UniProt H0VRN8); test: as above; design: species or system guinea pig; conditions: spontaneously beating atrium, guinea pig, methacholine, 30 minutes contact; read-out: KB, Heart
T2 construct: isolated, spontaneously beating, right atrium; from tissue; host or cells: isolated spontaneously beating right atrium of the guinea pig
T2 sequence (H0VRN8 1-466): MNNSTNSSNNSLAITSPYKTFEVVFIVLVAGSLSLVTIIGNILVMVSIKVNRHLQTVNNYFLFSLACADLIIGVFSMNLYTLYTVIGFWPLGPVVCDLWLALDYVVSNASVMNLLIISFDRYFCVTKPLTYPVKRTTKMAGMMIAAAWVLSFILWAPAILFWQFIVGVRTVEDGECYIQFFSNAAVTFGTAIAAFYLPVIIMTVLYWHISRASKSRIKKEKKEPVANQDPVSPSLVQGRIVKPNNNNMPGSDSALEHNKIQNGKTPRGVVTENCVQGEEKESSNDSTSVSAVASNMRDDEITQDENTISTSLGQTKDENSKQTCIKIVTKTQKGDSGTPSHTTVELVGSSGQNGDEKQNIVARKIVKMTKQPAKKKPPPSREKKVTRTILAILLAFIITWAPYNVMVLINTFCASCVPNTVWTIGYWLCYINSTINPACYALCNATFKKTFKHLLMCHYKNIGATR
Method: as §1, §3

M2 = molecular target: T3, M2 (Rattus norvegicus, UniProt P10980); test: M2 activity in the rat: inhibition of bradycardia caused by vagus stimulation; type: in vivo, rat (male THOM); conditions: iv, 5 min, 50% reduction of vagal bradycardia
T3 construct: The bradycardia caused by vagus stimulation; from tissue; host or cells: heart of the living male THOM rat
T3 sequence (P10980 1-466): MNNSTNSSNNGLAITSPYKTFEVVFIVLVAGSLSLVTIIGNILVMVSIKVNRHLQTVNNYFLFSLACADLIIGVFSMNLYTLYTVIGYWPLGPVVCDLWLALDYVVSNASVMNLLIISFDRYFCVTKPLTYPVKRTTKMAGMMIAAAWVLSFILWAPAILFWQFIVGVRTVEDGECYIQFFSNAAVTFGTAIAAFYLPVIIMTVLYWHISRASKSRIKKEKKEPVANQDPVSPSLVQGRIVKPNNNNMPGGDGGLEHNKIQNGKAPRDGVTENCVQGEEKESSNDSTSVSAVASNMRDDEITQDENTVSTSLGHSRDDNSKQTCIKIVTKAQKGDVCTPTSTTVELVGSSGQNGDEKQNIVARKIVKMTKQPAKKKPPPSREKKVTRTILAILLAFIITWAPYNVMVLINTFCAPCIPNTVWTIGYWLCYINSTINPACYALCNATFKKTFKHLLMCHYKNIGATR
Method: The method used was described by Hammer and Giachetti (Life Sciences 31, 2991-2998 (1982)). 5 minutes after the intravenous injection of increasing doses of the substance, either the right vagus was electrically stimulated (frequency: 25 Hz; pulse width: 2 ms; duration of stimulus: 30 s; voltage: supramaximal) or 0.3 mg/kg of McN-A-343 were intravenously injected into male THOM rats. The bradycardia caused by vagus stimulation and the rise in blood pressure caused by McN-A-343 were determined. The dosage of the substances which reduced either the vagal bradycardia (M2) or the rise in blood pressure (M1) by 50% was determined graphically. For the results see Table II.

[6] = test system: muscarinic receptors (bronchi); test: Receptor binding test in vivo (3H-NMS), bronchi; design: species or system rat (female); conditions: i.v., in vivo 3H-NMS binding, rat; 30 min
Method: as §2

[7] = molecular target: T4, muscarinic receptors (heart, ventricle) (Rattus norvegicus, UniProt P10980); test: Receptor binding test in vivo (3H-NMS), ventricle; design: species or system rat (female); conditions: iv, 0.5 h, read-out: ID50, Heart, Ventricle
T4 construct: from tissue; host or cells: heart (atrium, ventricle) of female rats, labelled in vivo
T4 sequence (P10980 1-466): T3 sequence (P10980 1-466)
Method: as §2

[8] = molecular target: T5, muscarinic receptors (heart) (Rattus norvegicus, UniProt P10980); test: Receptor binding test in vitro, 3H-NMS displacement, whole heart; design: species or system rat (male Sprague-Dawley)
T5 construct: The whole heart was cut up with scissors; from tissue; host or cells: whole heart of male Sprague-Dawley rats, homogenate
T5 sequence (P10980 1-466): T3 sequence (P10980 1-466)
Method: The organs were donated by male Sprague-Dawley rats weighing 180-220 g. After the heart and submandibular gland had been removed, all other steps were carried out in ice cold Hepes HCl buffer (pH 7.4; 100 mmolar NaCl, 10 mmolar MgCl2). The whole heart was cut up with scissors. All the organs were then homogenised in a Potter apparatus.
For the binding test the homogenised organs were diluted as follows:
The homogenised organs were incubated at a certain concentration of the radioligand and at a series of concentrations of the non-radioactive test substances in an Eppendorf centrifuge tube at 30° C. Incubation lasted 45 minutes. […] Incubation was ended by the addition of ice cold buffer followed by vacuum filtration. The filters were rinsed with cold buffer and their radioactivity was determined. […] Each measurement was taken four times. The IC50 values of the non-labelled test substances were determined graphically.

[9] = molecular target: T6, muscarinic receptors (heart, atrium) (Rattus norvegicus, UniProt P10980); test: Receptor binding test in vivo (3H-NMS), atrium; design: species or system rat (female)
T6 construct: from tissue; host or cells: heart (atrium, ventricle) of female rats, labelled in vivo
T6 sequence (P10980 1-466): T3 sequence (P10980 1-466)
Method: as §2

M1 = molecular target: T7, M1 (Rattus norvegicus, UniProt P08482); test: M1 activity in the rat: inhibition of rise in blood pressure caused by McN-A-343; type: in vivo, rat (male THOM); conditions: iv, 5 min, read-out: M1 activity (rat) ED50
T7 construct: from tissue; host or cells: living male THOM rat (site of action, sympathetic ganglia, is own knowledge)
T7 sequence (P08482 1-460): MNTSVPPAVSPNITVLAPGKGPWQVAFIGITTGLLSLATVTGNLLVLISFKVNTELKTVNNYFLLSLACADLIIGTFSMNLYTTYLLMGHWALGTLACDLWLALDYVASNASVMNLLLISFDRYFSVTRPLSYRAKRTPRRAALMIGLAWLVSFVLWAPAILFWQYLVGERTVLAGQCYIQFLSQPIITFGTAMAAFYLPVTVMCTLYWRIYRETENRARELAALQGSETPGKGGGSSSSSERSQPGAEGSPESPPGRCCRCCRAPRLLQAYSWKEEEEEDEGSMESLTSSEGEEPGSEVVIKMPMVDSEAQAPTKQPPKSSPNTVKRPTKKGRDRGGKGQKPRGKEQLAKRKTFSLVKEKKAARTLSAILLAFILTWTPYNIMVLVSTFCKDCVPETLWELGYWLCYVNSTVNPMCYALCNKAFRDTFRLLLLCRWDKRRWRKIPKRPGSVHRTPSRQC
Method: The dosage of the substances which reduced either the vagal bradycardia (M2) or the rise in blood pressure (M1) by 50% was determined graphically. For the results see Table II.

heart rate = test: Inhibition of acetylcholine activity on heart rate; type: in vivo, guinea pig; conditions: Cavia porcellus, 5 min, read-out: log ED50, Heart
Method: (§4) 5 minutes after the administration of the test substance, 10 mcg/kg of acetylcholine were simultaneously injected intravenously and intra-arterially into anaesthetised guinea pigs. The heart rate was recorded directly by extracorporeal derivation of the ECG, the expiration resistance according to Konzett-Rossler and contraction of the exposed bladder. In order to determine the inhibition of the acetylcholine activity on the organs under investigation, dosage/activity curves were recorded and from them -log ED50 values were determined.

bladder = test: Inhibition of acetylcholine activity on the bladder (contraction of the exposed bladder); type: in vivo, guinea pig; conditions: Cavia porcellus, 5 min, read-out: log ED50, Bladder
Method: as §4

[10] = i.v., 50% reduction of McN-A-343 rise in blood pressure

Sequence of muscarinic receptors (lachrymal glands) (P08483 whole entry): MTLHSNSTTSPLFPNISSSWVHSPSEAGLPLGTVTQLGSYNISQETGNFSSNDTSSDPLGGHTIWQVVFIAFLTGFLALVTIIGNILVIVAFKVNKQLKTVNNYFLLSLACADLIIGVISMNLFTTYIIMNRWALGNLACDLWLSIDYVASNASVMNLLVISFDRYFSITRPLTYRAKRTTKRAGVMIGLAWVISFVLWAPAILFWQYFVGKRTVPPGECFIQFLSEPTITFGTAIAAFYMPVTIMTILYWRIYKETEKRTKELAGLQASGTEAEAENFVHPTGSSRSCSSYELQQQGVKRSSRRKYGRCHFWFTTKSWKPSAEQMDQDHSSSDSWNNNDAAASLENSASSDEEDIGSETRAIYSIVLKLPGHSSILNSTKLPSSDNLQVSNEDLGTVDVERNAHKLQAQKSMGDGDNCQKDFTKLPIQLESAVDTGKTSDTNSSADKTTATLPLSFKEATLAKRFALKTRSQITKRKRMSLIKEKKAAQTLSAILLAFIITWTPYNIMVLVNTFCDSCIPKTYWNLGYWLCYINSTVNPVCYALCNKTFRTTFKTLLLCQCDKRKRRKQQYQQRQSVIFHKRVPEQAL
Sequence of muscarinic receptors (submandibular gland) (P08483 whole entry): as above
T1 sequence (H0W1Z3 1-590): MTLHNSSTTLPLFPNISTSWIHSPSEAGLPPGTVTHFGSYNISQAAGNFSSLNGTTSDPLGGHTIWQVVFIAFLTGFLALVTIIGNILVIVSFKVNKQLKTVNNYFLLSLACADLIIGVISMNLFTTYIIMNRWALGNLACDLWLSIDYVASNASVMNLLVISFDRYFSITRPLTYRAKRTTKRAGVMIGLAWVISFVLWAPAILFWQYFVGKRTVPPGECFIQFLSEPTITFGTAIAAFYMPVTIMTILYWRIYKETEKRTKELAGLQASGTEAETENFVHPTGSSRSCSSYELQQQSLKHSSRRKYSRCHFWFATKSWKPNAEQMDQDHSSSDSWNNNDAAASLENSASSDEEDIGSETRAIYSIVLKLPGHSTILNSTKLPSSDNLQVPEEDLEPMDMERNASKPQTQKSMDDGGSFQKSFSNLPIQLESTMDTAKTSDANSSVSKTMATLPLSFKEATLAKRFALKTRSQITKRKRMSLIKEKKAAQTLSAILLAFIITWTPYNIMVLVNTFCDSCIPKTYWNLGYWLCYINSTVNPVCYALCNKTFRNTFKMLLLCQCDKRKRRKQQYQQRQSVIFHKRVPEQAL

CS(=O)(=O)O.O=C1Nc2cccnc2N(C(=O)N2CCCC(CCCN3CCCCC3)C2)c2ccccc21 (stereo not drawn) [Example 1 methanesulphonate, 5,11-dihydro-11-[[3-[3-(1-piperidinyl)propyl]-1-piperidinyl]carbonyl]-6H-pyrido[2,3-b][1,4]benzodiazepin-6-one-methanesulphonate]
solubility in water (in words) (Solubility in water): readily soluble in water

CCN(CC)CCCCC1CCCCN1C(=O)N1c2ccccc2C(=O)Nc2cccnc21 (stereo not drawn) [Example 4 dihydrochloride]
solubility in water (in words) (Solubility in water): water soluble

O=C1Nc2cccnc2N(C(=O)N2CCCC(CCCN3CCCCC3)C2)c2ccccc21 (stereo not drawn) [Substance A, 5,11-dihydro-11-[[3-[3-(1-piperidinyl)propyl]-1-piperidinyl]carbonyl]-6H-pyrido[2,3-b][1,4]-benzodiazepin-6-one]
Kb [1]: 3.23 nM
IC50 [2]: 20 nM
Ratio of ID50 in the lachrymal glands to ID50 in the atrium ([3]; in vivo binding): 20
effectiveness compared with X and Y, Table III (in words) [4]: significantly more effective than X and Y
selectivity heart vs smooth muscle, Table III (in words) [4]: a clear selectivity in favour of the heart
Kb [5]: 0.347 nM
ED50 (M2): 0.0069 mg/kg
ID50, Bronchi [6]: 0.06 mg/kg
ED50 ([7]; i.v., in vivo 3H-NMS binding): 0.005 mg/kg
Selectivity factor: ratio IC50 submandibular gland to IC50 heart [8]: 10
potency on the heart compared with X and Y, Table IV (in words) ([9]; in vivo binding): significant improvement in potency compared with substances X and Y on the heart
ED50 (M1; [10]): 0.049 mg/kg

Cl.O=C1Nc2cccnc2N(C(=O)N2CCCC(CCCN3CCCC3)C2)c2ccccc21 (stereo not drawn) [Substance B, 5,11-dihydro-11-[[3-[3-(1-pyrrolidinyl)propyl]-1-piperidinyl]carbonyl]-6H-pyrido[2,3-b][1,4]benzodiazepin-6-one-hydrochloride]
IC50 [2]: 39.8 nM
Selectivity factor: ratio IC50 submandibular gland to IC50 heart [8]: 4

CS(=O)(=O)O.O=C1Nc2cccnc2N(C(=O)N2CCCC(CCN3CCCCC3)C2)c2ccccc21 (stereo not drawn) [Substance C, 5,11-dihydro-11-[[3-[2-(1-piperidinyl)ethyl]-1-piperidinyl]carbonyl]-6H-pyrido[2,3-b][1,4]benzodiazepin-6-one-methanesulphonate]
IC50 [2]: 30.2 nM
ED50 (M2): 0.0076 mg/kg
Selectivity factor: ratio IC50 submandibular gland to IC50 heart [8]: 10
ED50 (M1; [10]): 0.039 mg/kg

O=C1Nc2cccnc2N(C(=O)N2CCCC(CCN3CCCC3)C2)c2ccccc21 (stereo not drawn) [Substance D, 5,11-dihydro-11-[[3-[2-(1-pyrrolidinyl)ethyl]-1-piperidinyl]carbonyl]-6H-pvrido[2,3-b][1,4]benzodiazepin-6-one-hydrochloride]
IC50 [2]: 50.1 nM
Selectivity factor: ratio IC50 submandibular gland to IC50 heart [8]: 8.3

CN(CCC1CCCN(C(=O)N2c3ccccc3C(=O)Nc3cccnc32)C1)C1CCCC1 (stereo not drawn) [Substance E]
IC50 [2]: 30.2 nM
Selectivity factor: ratio IC50 submandibular gland to IC50 heart [8]: 10

Cl.O=C1Nc2cccnc2N(C(=O)N2CCCC(CCN3CCCCCC3)C2)c2ccccc21 (stereo not drawn) [Substance F, 5,11-dihydro-11-[[3-[2-(hexahydro-1H-1-azepinyl)ethyl]-1-piperidinyl]carbonyl]-6H-pyrido[2,3-b][1,4]-benzodiazepin-6-one-hydrochloride]
IC50 [2]: 30.2 nM
Selectivity factor: ratio IC50 submandibular gland to IC50 heart [8]: 10

O=C1Nc2ccccc2N(C(=O)N2CCCC(CCN3CCCCC3)C2)c2ncccc21 (stereo not drawn) [Substance G, 6,11-dihydro-11-[[3-[2-(1-piperidinyl)ethyl]-1-piperidinyl]carbonyl]-5H-pyrido[2,3-b][1,5]benzodiazepin-5-one]
IC50 [2]: 39.8 nM
ED50 (M2): 0.00813 mg/kg
Selectivity factor: ratio IC50 submandibular gland to IC50 heart [8]: 10
ED50 (M1; [10]): 0.00716 mg/kg

CCN(CC)CC1CCCCN1CC(=O)N1c2ccccc2C(=O)Nc2cccnc21 (stereo not drawn) [Substance X, 11-[[2-[(diethylamino)methyl]-1-piperidinyl]acetyl]-5,11-dihydro-6H-pyrido[2,3-b][1,4]benzodiazepin-6-one]
ED50 [3]: > 30 mg/kg

CN1[C@@H]2CC[C@H]1C[C@@H](OC(=O)C(CO)c1ccccc1)C2 (stereo partly drawn) [Substance Z, atropine, reference compound]
ED50 (heart rate): 0.02 µmol/kg
ED50 [3]: 0.2 mg/kg
Kb [5]: 1.41 nM
ID50, Bronchi [6]: 0.1 mg/kg
ED50 [7]: 0.03 mg/kg
ED50 (bladder): 0.0933 µmol/kg
ED50 ([9]; iv, 0.5 h, read-out: ID50, Heart, Atrium): 0.08 mg/kg
ED50 (M1): 0.016 mg/kg
